Measurements published in the kinase profiling compilation of Christmann-Franck et al. (2016).

Legend:
Assay in all cases: KINOMEscan competition binding
Settings in all cases: compound 10.0 µM
[1] = tested on: FLT3 (human), P36888 [D835Y]
[2] = molecular target: SIK1 (human) (UniProt P57059)
[3] = molecular target: EPHA4 (human) (UniProt P54764)
[4] = molecular target: ERBB4 (human) (UniProt Q15303)
[5] = molecular target: FGFR3 (human) (UniProt P22607)
[6] = molecular target: CDK14 (human) (UniProt O94921)
[7] = molecular target: DDR1 (human) (UniProt Q08345)
[8] = molecular target: TTK (human) (UniProt P33981)
[9] = tested on: FLT3 (human), P36888 [N841I]
[10] = molecular target: CDK15 (human) (UniProt Q96Q40)
[11] = molecular target: FRK (human) (UniProt P42685)
[12] = molecular target: MAP4K3 (human) (UniProt Q8IVH8)
[13] = molecular target: CDK9 (human) (UniProt P50750)
[14] = molecular target: CDK16 (human) (UniProt Q00536)
[15] = tested on: EGFR (human), P00533 [G719C]
[16] = tested on: RET (human), P07949 [M918T]
[17] = tested on: RET (human), P07949 [V804M]
[18] = molecular target: ABL2 (human) (UniProt P42684)
[19] = tested on: KIT (human), P10721 [V559D]
[20] = molecular target: SRMS (human) (UniProt Q9H3Y6)
[21] = molecular target: FES (human) (UniProt P07332)
[22] = molecular target: SYK (human) (UniProt P43405)
[23] = molecular target: CDK8 (human) (UniProt P49336)
[24] = molecular target: CDK18 (human) (UniProt Q07002)
[25] = molecular target: LTK (human) (UniProt P29376)
[26] = molecular target: JAK1 JH1 catalytic (human) (UniProt P23458)
[27] = molecular target: MUSK (human) (UniProt O15146)
[28] = tested on: EGFR (human), P00533 [A750P; 747-749 del]
[29] = tested on: RET (human), P07949 [V804L]
[30] = tested on: ABL1 (human), P00519 [M351T]
[31] = molecular target: TNK1 (human) (UniProt Q13470)
[32] = molecular target: HIPK1 (human) (UniProt Q86Z02)
[33] = molecular target: SLK (human) (UniProt Q9H2G2)
[34] = tested on: ABL1 (human), P00519 [F317I]
[35] = molecular target: RAF1 (human) (UniProt P04049)
[36] = molecular target: CDK11B (human) (UniProt P21127)
[37] = tested on: EGFR (human), P00533 [752-759 del]
[38] = tested on: ABL1 (human), P00519 [T315I]
[39] = molecular target: FLT4 (human) (UniProt P35916)
[40] = tested on: ABL1 (human), P00519 [E255K]
[41] = molecular target: STK35 (human) (UniProt Q8TDR2)

TTK (human), sequence (P33981 whole entry, looked up): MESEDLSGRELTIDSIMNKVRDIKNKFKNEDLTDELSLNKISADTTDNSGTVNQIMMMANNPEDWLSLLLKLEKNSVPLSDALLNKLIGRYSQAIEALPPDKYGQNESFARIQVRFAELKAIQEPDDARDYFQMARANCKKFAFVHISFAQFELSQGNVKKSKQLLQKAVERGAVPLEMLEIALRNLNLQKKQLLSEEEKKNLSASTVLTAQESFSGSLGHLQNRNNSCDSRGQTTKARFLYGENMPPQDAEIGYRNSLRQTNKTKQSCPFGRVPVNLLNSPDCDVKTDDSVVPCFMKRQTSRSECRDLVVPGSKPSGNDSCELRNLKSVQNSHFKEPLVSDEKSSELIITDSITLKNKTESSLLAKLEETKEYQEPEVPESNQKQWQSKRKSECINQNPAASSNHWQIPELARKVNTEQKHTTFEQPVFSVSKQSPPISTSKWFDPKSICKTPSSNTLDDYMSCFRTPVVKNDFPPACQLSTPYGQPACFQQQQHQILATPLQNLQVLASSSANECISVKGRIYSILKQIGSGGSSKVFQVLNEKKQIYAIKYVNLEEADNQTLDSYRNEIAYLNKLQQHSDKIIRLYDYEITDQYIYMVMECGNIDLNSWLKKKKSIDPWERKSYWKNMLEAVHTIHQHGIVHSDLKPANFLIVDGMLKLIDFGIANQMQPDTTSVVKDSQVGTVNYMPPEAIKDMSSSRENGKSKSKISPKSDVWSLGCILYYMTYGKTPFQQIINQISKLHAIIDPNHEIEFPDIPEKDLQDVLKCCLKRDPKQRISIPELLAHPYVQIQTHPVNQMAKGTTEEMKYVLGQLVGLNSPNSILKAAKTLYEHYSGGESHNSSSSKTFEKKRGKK
MAP4K3 (human), sequence (Q8IVH8 whole entry, looked up): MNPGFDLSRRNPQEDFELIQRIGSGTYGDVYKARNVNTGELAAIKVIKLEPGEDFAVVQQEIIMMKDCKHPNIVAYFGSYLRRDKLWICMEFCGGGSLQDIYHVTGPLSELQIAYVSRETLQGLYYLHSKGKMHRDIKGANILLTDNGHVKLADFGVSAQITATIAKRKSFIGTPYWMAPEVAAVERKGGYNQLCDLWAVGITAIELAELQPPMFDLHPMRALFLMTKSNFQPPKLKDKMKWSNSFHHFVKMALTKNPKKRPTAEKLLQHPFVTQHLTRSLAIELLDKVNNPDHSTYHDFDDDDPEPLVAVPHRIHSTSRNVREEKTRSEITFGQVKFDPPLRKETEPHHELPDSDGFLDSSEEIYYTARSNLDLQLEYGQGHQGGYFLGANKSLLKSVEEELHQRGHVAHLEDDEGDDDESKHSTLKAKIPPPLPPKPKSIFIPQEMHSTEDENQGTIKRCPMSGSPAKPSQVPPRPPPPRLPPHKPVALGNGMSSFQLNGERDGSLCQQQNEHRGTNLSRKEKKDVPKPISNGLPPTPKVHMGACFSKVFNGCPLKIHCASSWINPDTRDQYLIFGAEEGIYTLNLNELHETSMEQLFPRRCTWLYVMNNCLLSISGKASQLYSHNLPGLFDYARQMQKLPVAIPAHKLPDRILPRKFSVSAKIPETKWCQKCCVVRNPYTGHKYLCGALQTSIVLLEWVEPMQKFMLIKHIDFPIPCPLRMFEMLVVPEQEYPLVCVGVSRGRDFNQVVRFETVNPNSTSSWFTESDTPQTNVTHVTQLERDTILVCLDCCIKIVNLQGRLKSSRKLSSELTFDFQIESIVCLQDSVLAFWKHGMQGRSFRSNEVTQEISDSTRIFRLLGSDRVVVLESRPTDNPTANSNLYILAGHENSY
CDK14 (human), sequence (O94921 whole entry, looked up): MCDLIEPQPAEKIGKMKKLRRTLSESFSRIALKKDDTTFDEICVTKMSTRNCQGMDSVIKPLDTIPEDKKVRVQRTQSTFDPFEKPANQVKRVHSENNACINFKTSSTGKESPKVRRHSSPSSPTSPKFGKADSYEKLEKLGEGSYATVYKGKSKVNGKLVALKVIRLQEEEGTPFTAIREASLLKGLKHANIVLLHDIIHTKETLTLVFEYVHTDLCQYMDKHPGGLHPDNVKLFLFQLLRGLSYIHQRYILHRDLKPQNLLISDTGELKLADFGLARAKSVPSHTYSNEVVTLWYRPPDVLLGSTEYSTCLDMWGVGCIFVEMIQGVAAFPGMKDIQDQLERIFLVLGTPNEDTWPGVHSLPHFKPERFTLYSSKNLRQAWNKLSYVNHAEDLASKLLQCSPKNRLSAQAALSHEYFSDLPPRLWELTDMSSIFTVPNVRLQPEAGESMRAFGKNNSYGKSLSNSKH
SLK (human), sequence (Q9H2G2 whole entry, looked up): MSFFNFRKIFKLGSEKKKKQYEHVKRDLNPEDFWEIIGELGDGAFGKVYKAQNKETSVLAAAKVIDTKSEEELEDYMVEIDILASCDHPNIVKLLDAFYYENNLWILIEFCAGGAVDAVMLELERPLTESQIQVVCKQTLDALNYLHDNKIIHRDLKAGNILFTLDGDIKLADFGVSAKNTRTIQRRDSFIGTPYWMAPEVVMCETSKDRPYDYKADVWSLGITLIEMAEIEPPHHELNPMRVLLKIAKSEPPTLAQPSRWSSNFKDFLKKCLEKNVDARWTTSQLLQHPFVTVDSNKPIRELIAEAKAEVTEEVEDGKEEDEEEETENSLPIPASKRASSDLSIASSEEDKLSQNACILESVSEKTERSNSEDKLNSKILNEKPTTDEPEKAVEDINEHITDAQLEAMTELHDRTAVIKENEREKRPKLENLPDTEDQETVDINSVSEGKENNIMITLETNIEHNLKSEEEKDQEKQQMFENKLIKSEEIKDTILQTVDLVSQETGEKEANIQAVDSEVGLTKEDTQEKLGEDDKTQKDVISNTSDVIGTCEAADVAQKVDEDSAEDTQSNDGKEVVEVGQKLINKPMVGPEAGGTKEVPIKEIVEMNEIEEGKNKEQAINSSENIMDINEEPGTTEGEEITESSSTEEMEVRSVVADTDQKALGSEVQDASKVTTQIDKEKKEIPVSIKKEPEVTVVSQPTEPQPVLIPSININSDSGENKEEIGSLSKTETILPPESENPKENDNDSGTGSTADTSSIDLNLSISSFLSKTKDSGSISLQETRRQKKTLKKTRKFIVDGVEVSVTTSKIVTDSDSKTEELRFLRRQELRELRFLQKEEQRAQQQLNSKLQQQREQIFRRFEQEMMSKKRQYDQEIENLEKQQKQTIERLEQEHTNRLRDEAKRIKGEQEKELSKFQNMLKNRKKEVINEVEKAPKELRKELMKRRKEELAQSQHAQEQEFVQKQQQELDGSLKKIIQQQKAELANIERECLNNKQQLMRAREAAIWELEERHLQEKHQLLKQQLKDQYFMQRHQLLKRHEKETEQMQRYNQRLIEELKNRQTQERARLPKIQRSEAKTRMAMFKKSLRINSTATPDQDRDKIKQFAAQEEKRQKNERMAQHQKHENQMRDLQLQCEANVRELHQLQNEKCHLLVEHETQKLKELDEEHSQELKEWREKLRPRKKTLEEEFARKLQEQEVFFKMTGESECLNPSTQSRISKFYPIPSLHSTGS
ABL2 (human), sequence (P42684 whole entry, looked up): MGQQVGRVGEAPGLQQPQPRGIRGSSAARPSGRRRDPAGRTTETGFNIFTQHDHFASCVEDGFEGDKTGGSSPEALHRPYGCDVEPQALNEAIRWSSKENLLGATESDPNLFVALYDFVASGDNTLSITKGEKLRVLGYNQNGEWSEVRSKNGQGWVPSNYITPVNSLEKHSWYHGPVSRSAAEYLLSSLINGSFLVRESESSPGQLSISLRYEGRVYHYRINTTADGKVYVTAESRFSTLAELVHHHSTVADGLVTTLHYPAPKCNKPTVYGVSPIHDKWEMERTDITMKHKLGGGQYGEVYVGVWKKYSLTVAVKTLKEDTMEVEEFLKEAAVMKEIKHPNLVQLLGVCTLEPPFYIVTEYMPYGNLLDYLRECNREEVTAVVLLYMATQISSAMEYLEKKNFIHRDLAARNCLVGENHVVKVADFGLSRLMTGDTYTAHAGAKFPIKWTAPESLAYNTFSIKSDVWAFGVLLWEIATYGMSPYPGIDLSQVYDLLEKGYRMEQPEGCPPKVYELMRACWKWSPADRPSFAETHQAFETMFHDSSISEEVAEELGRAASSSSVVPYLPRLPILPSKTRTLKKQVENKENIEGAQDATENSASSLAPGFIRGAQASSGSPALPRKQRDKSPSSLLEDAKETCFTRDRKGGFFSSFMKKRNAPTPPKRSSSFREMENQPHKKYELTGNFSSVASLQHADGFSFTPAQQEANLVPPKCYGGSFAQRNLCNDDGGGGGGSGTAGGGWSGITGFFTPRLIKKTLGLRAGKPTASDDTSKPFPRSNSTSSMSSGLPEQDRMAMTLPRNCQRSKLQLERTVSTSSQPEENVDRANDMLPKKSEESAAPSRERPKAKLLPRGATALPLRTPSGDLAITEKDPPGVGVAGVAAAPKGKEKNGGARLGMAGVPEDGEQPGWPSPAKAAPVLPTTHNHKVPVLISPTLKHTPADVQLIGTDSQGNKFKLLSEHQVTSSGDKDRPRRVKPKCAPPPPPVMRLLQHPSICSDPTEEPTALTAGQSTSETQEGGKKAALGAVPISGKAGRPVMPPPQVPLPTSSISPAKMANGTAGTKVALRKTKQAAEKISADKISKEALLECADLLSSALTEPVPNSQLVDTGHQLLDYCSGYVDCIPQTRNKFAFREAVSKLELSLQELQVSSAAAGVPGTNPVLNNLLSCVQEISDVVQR
CDK15 (human), sequence (Q96Q40 whole entry, looked up): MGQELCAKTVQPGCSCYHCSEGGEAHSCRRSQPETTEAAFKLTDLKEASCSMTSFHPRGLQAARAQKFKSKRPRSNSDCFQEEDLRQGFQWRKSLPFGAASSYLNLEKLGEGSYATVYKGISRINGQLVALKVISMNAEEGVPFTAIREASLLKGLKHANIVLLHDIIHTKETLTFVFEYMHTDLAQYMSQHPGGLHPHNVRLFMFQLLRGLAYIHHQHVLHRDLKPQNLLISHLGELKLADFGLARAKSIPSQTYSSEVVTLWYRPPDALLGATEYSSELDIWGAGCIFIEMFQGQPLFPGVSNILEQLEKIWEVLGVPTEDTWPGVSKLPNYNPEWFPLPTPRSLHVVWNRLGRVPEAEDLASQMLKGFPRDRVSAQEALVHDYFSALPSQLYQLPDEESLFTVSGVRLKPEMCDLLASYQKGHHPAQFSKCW

kinase still bound, per cent of control [1]: 14%
kinase still bound, per cent of control [2]: 5.3%
kinase still bound, per cent of control [3]: 5.8%
kinase still bound, per cent of control [4]: 28%
kinase still bound, per cent of control [5]: 9.4%
residual activity [6]: 0.4%
kinase still bound, per cent of control [7]: 0.05%
kinase still bound, per cent of control [8]: 24%
kinase still bound, per cent of control [9]: 0%
residual activity [10]: 6%
kinase still bound, per cent of control [11]: 0.7%
kinase still bound, per cent of control [12]: 18%
residual activity [13]: 5.8%
residual activity [14]: 11%
kinase still bound, per cent of control [15]: 12%
kinase still bound, per cent of control [16]: 0%
kinase still bound, per cent of control [17]: 1%
kinase still bound, per cent of control [18]: 0.6%
kinase still bound, per cent of control [19]: 0%
kinase still bound, per cent of control [20]: 4.6%
kinase still bound, per cent of control [21]: 2.2%
kinase still bound, per cent of control [22]: 6.2%
residual activity [23]: 3.9%
residual activity [24]: 1.8%
kinase still bound, per cent of control [25]: 1.2%
kinase still bound, per cent of control [26]: 11%
kinase still bound, per cent of control [27]: 0.2%
kinase still bound, per cent of control [28]: 1.5%
kinase still bound, per cent of control [29]: 0.8%
kinase still bound, per cent of control [30]: 0.35%
kinase still bound, per cent of control [31]: 0.35%
kinase still bound, per cent of control [32]: 6.2%
kinase still bound, per cent of control [33]: 2%
kinase still bound, per cent of control [34]: 0.05%
kinase still bound, per cent of control [35]: 7%
residual activity [36]: 0.35%
kinase still bound, per cent of control [37]: 4.6%
kinase still bound, per cent of control [38]: 0%
kinase still bound, per cent of control [39]: 0.2%
kinase still bound, per cent of control [40]: 1.2%
kinase still bound, per cent of control [41]: 3%
Compound: CCN1CCN(Cc2ccc(NC(=O)c3ccc(C)c(Oc4ccnc5[nH]ccc45)c3)cc2C(F)(F)F)CC1
